Test results as given in the CheMixHub viscosity set.
± gives the uncertainty stated by the source.

Assay: xn = mol fraction of the nth substance listed

O=[N+]([O-])c1ccccc1 + COc1ccccc1
Details | viscosity [mPa·s]
293.15 K, 101.33 kPa, x2 = 0.0982 | 1.864 ± 0.098
293.15 K, 101.33 kPa, x2 = 0.1946 | 1.72 ± 0.09
293.15 K, 101.33 kPa, x2 = 0.2868 | 1.597 ± 0.084
293.15 K, 101.33 kPa, x2 = 0.3929 | 1.478 ± 0.077
293.15 K, 101.33 kPa, x2 = 0.5767 | 1.407 ± 0.074
293.15 K, 101.33 kPa, x2 = 0.6086 | 1.289 ± 0.068
293.15 K, 101.33 kPa, x2 = 0.7073 | 1.23 ± 0.064
293.15 K, 101.33 kPa, x2 = 0.8086 | 1.167 ± 0.061
293.15 K, 101.33 kPa, x2 = 0.9081 | 1.117 ± 0.059
298.15 K, 101 kPa, x2 = 0.1 | 1.556 ± 0.041
298.15 K, 101 kPa, x2 = 0.2022 | 1.561 ± 0.04
298.15 K, 101 kPa, x2 = 0.3039 | 1.454 ± 0.038
298.15 K, 101 kPa, x2 = 0.3968 | 1.368 ± 0.035
298.15 K, 101 kPa, x2 = 0.5018 | 1.281 ± 0.033
298.15 K, 101 kPa, x2 = 0.6021 | 1.204 ± 0.031
298.15 K, 101 kPa, x2 = 0.7032 | 1.146 ± 0.03
298.15 K, 101 kPa, x2 = 0.8267 | 1.068 ± 0.028
298.15 K, 101 kPa, x2 = 0.9043 | 1.045 ± 0.027
298.15 K, 101.33 kPa, x2 = 0.0982 | 1.703 ± 0.089
298.15 K, 101.33 kPa, x2 = 0.1946 | 1.613 ± 0.084
298.15 K, 101.33 kPa, x2 = 0.2868 | 1.468 ± 0.077
298.15 K, 101.33 kPa, x2 = 0.3929 | 1.371 ± 0.072
298.15 K, 101.33 kPa, x2 = 0.5767 | 1.294 ± 0.068
298.15 K, 101.33 kPa, x2 = 0.6086 | 1.201 ± 0.063
298.15 K, 101.33 kPa, x2 = 0.7073 | 1.153 ± 0.06
298.15 K, 101.33 kPa, x2 = 0.8086 | 1.074 ± 0.056
298.15 K, 101.33 kPa, x2 = 0.9081 | 1.048 ± 0.055
303.15 K, 101 kPa, x2 = 0.0972 | 1.555 ± 0.014
303.15 K, 101 kPa, x2 = 0.1 | 1.43 ± 0.037
303.15 K, 101 kPa, x2 = 0.1829 | 1.437 ± 0.013
303.15 K, 101 kPa, x2 = 0.2022 | 1.443 ± 0.037
303.15 K, 101 kPa, x2 = 0.2642 | 1.341 ± 0.012
303.15 K, 101 kPa, x2 = 0.3039 | 1.339 ± 0.035
303.15 K, 101 kPa, x2 = 0.3916 | 1.224 ± 0.011
303.15 K, 101 kPa, x2 = 0.3968 | 1.263 ± 0.033
303.15 K, 101 kPa, x2 = 0.4829 | 1.147 ± 0.011
303.15 K, 101 kPa, x2 = 0.5018 | 1.186 ± 0.031
303.15 K, 101 kPa, x2 = 0.583 | 1.08 ± 0.01
303.15 K, 101 kPa, x2 = 0.6021 | 1.115 ± 0.029
303.15 K, 101 kPa, x2 = 0.6854 | 1.022 ± 0.0096
303.15 K, 101 kPa, x2 = 0.7032 | 1.064 ± 0.028
303.15 K, 101 kPa, x2 = 0.7963 | 0.981 ± 0.0093
303.15 K, 101 kPa, x2 = 0.8267 | 0.9924 ± 0.026
303.15 K, 101 kPa, x2 = 0.8977 | 0.96 ± 0.0091
303.15 K, 101 kPa, x2 = 0.9043 | 0.9678 ± 0.025
308.15 K, 101 kPa, x2 = 0.1 | 1.317 ± 0.034
308.15 K, 101 kPa, x2 = 0.2022 | 1.326 ± 0.034
308.15 K, 101 kPa, x2 = 0.3039 | 1.236 ± 0.032
308.15 K, 101 kPa, x2 = 0.3968 | 1.165 ± 0.03
308.15 K, 101 kPa, x2 = 0.5018 | 1.096 ± 0.028
308.15 K, 101 kPa, x2 = 0.6021 | 1.031 ± 0.027
308.15 K, 101 kPa, x2 = 0.7032 | 0.9838 ± 0.025
308.15 K, 101 kPa, x2 = 0.8267 | 0.92 ± 0.024
308.15 K, 101 kPa, x2 = 0.9043 | 0.8978 ± 0.023
313.15 K, 101 kPa, x2 = 0.1 | 1.217 ± 0.031
313.15 K, 101 kPa, x2 = 0.2022 | 1.224 ± 0.032
313.15 K, 101 kPa, x2 = 0.3039 | 1.142 ± 0.03
313.15 K, 101 kPa, x2 = 0.3968 | 1.078 ± 0.028
313.15 K, 101 kPa, x2 = 0.5018 | 1.013 ± 0.026
313.15 K, 101 kPa, x2 = 0.6021 | 0.9572 ± 0.025
313.15 K, 101 kPa, x2 = 0.7032 | 0.9119 ± 0.024
313.15 K, 101 kPa, x2 = 0.8267 | 0.8533 ± 0.022
313.15 K, 101 kPa, x2 = 0.9043 | 0.8343 ± 0.022

CCCCCCC + CO
298.15 K
Details | viscosity [mPa·s]
101 kPa, x1 = 0.01 | 0.535 ± 0.0037
101 kPa, x1 = 0.02 | 0.5317 ± 0.0037
101 kPa, x1 = 0.03 | 0.5293 ± 0.0036
101 kPa, x1 = 0.04 | 0.5277 ± 0.0036
101 kPa, x1 = 0.05 | 0.5257 ± 0.0036
101 kPa, x1 = 0.06 | 0.5246 ± 0.0036
101 kPa, x1 = 0.08 | 0.5247 ± 0.0036
101 kPa, x1 = 0.09 | 0.5214 ± 0.0036
101.33 kPa, x2 = 0.0171 | 0.401 ± 0.006
101.33 kPa, x2 = 0.0593 | 0.401 ± 0.006
101.33 kPa, x2 = 0.0865 | 0.404 ± 0.006
101.33 kPa, x2 = 0.1148 | 0.403 ± 0.006
101.33 kPa, x2 = 0.9043 | 0.548 ± 0.007
101.33 kPa, x2 = 0.9241 | 0.549 ± 0.007
101.33 kPa, x2 = 0.9474 | 0.552 ± 0.007
101.33 kPa, x2 = 0.9653 | 0.554 ± 0.007
101.33 kPa, x2 = 0.9765 | 0.553 ± 0.007
